# Source: patent publication US20220033397A1, “PHARMACEUTICAL COMPOUNDS AND THEIR USE AS INHIBITORS OF UBIQUITIN SPECIFIC PROTEASE 19 (USP19)” (ALMAC DISCOVERY LIMITED, priority 2018, published 2022)
# Target: T1, Full-length USP19 (Homo sapiens, UniProt O94966)
# T1 construct: Full-length USP19 was purchased from Boston Biochem (E-576); purchased Boston Biochem E-576
# T1 sequence (O94966 1-1318): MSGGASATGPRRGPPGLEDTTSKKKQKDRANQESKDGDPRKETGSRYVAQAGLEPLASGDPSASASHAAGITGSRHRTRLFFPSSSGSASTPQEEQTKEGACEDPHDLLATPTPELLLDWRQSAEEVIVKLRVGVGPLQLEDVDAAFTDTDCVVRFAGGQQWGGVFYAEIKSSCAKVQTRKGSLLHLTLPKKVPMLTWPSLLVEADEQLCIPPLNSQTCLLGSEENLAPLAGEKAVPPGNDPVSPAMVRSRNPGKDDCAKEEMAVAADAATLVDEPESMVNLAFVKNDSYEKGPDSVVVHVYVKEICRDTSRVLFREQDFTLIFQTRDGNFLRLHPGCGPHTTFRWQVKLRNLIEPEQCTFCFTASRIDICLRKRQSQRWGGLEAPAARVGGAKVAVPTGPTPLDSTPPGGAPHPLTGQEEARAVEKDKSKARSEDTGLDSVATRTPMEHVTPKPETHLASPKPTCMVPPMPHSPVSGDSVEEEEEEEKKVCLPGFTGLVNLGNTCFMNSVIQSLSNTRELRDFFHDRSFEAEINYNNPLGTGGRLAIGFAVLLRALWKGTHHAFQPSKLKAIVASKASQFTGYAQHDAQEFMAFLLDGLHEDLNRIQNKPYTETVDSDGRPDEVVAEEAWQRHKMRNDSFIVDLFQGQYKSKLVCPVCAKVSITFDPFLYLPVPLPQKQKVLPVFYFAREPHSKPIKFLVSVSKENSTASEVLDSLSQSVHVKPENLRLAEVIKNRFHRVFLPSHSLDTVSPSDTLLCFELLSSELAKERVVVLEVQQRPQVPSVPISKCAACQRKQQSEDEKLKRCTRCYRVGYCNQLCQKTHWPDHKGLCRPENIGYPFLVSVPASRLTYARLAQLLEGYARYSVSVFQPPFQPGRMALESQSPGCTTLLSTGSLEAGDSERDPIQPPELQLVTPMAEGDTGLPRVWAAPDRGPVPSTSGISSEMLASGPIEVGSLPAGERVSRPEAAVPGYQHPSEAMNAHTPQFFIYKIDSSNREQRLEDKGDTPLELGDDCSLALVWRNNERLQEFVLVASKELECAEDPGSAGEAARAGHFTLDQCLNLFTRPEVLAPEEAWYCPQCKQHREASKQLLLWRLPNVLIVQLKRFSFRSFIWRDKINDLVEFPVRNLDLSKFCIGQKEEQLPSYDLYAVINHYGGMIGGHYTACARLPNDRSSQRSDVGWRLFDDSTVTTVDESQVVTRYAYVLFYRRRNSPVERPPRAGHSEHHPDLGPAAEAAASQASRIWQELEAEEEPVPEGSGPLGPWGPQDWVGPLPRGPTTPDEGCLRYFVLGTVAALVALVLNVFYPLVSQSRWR
# Assay: USP19 fluorescence polarisation (FP) homogeneous assay with Ubiquitin-Lys-TAMRA substrate
# Type: biochemical
# Conditions: 2.5 nM USP19, 30 min pre-incubation, average of at least two duplicate experiments
# Method: Unless otherwise stated, all other reagents were purchased from Sigma. Enzymatic reactions were conducted in black flat bottom polystyrene 384-well plates (Nunc) and 30 μL total volume. […] Inhibitors were stored as 10 mM DMSO stocks in an inert environment (low humidity, dark, low oxygen, room temperature) using the Storage Pod System and serial dilutions were prepared in buffer just prior to the assay (from 200 μM to 2 μM, 8-18 data point curve).
# Following incubation at RT for 30 min, the enzymatic reactions were initiated by dispensing the Ub substrate (500 nM, 10 μL). FP was measured every 15 min over a period of 90 min (within the linear range of the assay) using a Synergy 4 plate reader (BioTek) exciting at 530 nm and measuring the amount of parallel and perpendicular light at 575 nm. The FP signal was subsequently normalised to the no compound control.
row,IC50 [µM],SMILES
1,5 to 50,"CN(C)C(=O)C1CN(C[C@@]2(O)CCN(C(=O)[C@H](CO)CC3CCCCC3)CC2(C)C)C(=O)CC1c1ccccc1 (stereo partly drawn) [Example 25, 1-(((R)-1-((S)-3-Cyclohexyl-2-(hydroxymethyl)propanoyl)-4-hydroxy-3,3-dimethylpiperidin-4-yl)methyl)-N,N-dimethyl-6-oxo-4-phenylpiperidine-3-carboxamide]"
2,< 0.5,"CN(C)C(=O)C1CN(C[C@]2(O)CCN(C(=O)[C@H](CO)CC3CCCCC3)CC2(C)C)C(=O)CC1c1ccccc1 (stereo partly drawn) [Example 26, 1-(((S)-1-((S)-3-Cyclohexyl-2-(hydroxymethyl)propanoyl)-4-hydroxy-3,3-dimethylpiperidin-4-yl)methyl)-N,N-dimethyl-6-oxo-4-phenylpiperidine-3-carboxamide]"
3,5 to 50,"C[C@H](CC1CCCCC1)C(=O)N1CCC(O)(CN2Cc3ccccc3C2=O)C(C)(C)C1 (stereo partly drawn) [Example 27, 2-((1-((R)-3-Cyclohexyl-2-methylpropanoyl)-4-hydroxy-3,3-dimethylpiperidin-4-yl)methyl)isoindolin-1-one]"
4,0.5 to 5,"C[C@H](CC1CCCCC1)C(=O)N1CCC(O)(CN2CC(Cc3ccccc3)CC2=O)C(C)(C)C1 (stereo partly drawn) [Example 30, 4-Benzyl-1-((1-((R)-3-cyclohexyl-2-methylpropanoyl)-4-hydroxy-3,3-dimethylpiperidin-4-yl)methyl)pyrrolidin-2-one]"
5,< 0.5,"C[C@H](CC1CCCCC1)C(=O)N1CCC(O)(CN2CCOCC2=O)C2(CCCC2)C1 (stereo partly drawn) [Example 31, 4-((7-((R)-3-Cyclohexyl-2-methylpropanoyl)-10-hydroxy-7-azaspiro[4.5]decan-10-yl)methyl)morpholin-3-one]"
6,50 to 250,"C[C@H](CC(F)(F)F)C(=O)N1CCC(O)(CN2CCOCC2=O)C2(CCCC2)C1 (stereo partly drawn) [Example 32, 4-((10-Hydroxy-7-((R)-4,4,4-trifluoro-2-methylbutanoyl)-7-azaspiro[4.5]decan-10-yl)methyl)morpholin-3-one]"
7,5 to 50,"CCCn1c(=O)n(CC2(O)CCN(C(=O)[C@H](C)CC3CCCCC3)CC23CCCC3)c2ccccc21 (stereo partly drawn) [Example 33, 1-((7-((R)-3-Cyclohexyl-2-methylpropanoyl)-10-hydroxy-7-azaspiro[4.5]decan-10-yl)methyl)-3-propyl-1,3-dihydro-2H-benzo[d]imidazol-2-one]"
8,5 to 50,"C[C@H](CC1CCCCC1)C(=O)N1CCC(O)(CN2CC(CO)CC2=O)C2(CCCC2)C1 (stereo partly drawn) [Example 34, 1-((7-((R)-3-Cyclohexyl-2-methylpropanoyl)-10-hydroxy-7-azaspiro[4.5]decan-10-yl)methyl)-4-(hydroxymethyl)pyrrolidin-2-one]"
9,0.5 to 5,"C[C@H](CC1CCCCC1)C(=O)N1CCC(O)(CN2C(=O)COc3cccnc32)C2(CCCC2)C1 (stereo partly drawn) [Example 35, 4-((7-((R)-3-Cyclohexyl-2-methylpropanoyl)-10-hydroxy-7-azaspiro[4.5]decan-10-yl)methyl)-2H-pyrido[3,2-b][1,4]oxazin-3(4H)-one]"
10,5 to 50,"C[C@H](CC1CCCCC1)C(=O)N1CCC(O)(CN2C(=O)C(=O)c3ccccc32)C2(CCCC2)C1 (stereo partly drawn) [Example 36, 1-((7-((R)-3-Cyclohexyl-2-methylpropanoyl)-10-hydroxy-7-azaspiro[4.5]decan-10-yl)methyl)indoline-2,3-dione]"
11,0.5 to 5,"C[C@H](CC1CCCCC1)C(=O)N1CCC(O)(CN2C(=O)COc3c(N)cccc32)C2(CCCC2)C1 (stereo partly drawn) [Example 37, 8-Amino-4-((7-((R)-3-cyclohexyl-2-methylpropanoyl)-10-hydroxy-7-azaspiro[4.5]decan-10-yl)methyl)-2H-benzo[b][1,4]oxazin-3(4H)-one]"
12,< 0.5,"C[C@H](CC1CCCCC1)C(=O)N1CCC(O)(CN2CCN(C(=O)OC(C)(C)C)CC2=O)C2(CCCC2)C1 (stereo partly drawn) [Example 38, tert-Butyl 4-((7-((R)-3-cyclohexyl-2-methylpropanoyl)-10-hydroxy-7-azaspiro[4.5]decan-10-yl)methyl)-3-oxopiperazine-1-carboxylate]"
13,0.5 to 5,C[C@H](CC1CCCCC1)C(=O)N1CCC(O)(CN2CCNCC2=O)C2(CCCC2)C1 (stereo partly drawn) [Example 39]
14,0.5 to 5,"C[C@H](CC1CCCCC1)C(=O)N1CCC(O)(CN2CC(Cc3ccccc3)CC2=O)C2(CCCC2)C1 (stereo partly drawn) [Example 41, 4-Benzyl-1-((7-((R)-3-cyclohexyl-2-methylpropanoyl)-10-hydroxy-7-azaspiro[4.5]decan-10-yl)methyl)pyrrolidin-2-one]"
15,50 to 250,"CC(CC1CCCCC1)C(=O)N1CCC(O)(CN2C(=O)c3ccccc3C2=O)C(C)(C)C1 (stereo not drawn) [Example 42, 2-((1-(3-Cyclohexyl-2-methylpropanoyl)-4-hydroxy-3,3-dimethylpiperidin-4-yl)methyl)isoindoline-1,3-dione]"
16,5 to 50,"CC(CC1CCCCC1)C(=O)N1CCC(O)(CN2CC(Cc3ccccc3)CC2=O)CC1 (stereo not drawn) [Example 43, 4-Benzyl-1-((1-(3-cyclohexyl-2-methylpropanoyl)-4-hydroxypiperidin-4-yl)methyl)pyrrolidin-2-one]"
17,50 to 250,"CC(Cc1ccccc1)C(=O)N1CCC(O)(CN2CC(Cc3ccccc3)CC2=O)C(C)(C)C1 (stereo not drawn) [Example 44, 4-Benzyl-1-((4-hydroxy-3,3-dimethyl-1-(2-methyl-3-phenylpropanoyl)piperidin-4-yl)methyl)pyrrolidin-2-one]"
18,50 to 250,"CC1(C)CN(C(=O)CCC2CCCCC2)CCC1(O)CN1CC(Cc2ccccc2)CC1=O (stereo not drawn) [Example 45, 4-Benzyl-1-((1-(3-cyclohexylpropanoyl)-4-hydroxy-3,3-dimethylpiperidin-4-yl)methyl)pyrrolidin-2-one]"
19,50 to 250,"CC(CC1CCCCC1)C(=O)N1CCC(O)(CN2CC3(CCCCC3)CC2=O)C(C)(C)C1 (stereo not drawn) [Example 46, 2-((1-(3-Cyclohexyl-2-methylpropanoyl)-4-hydroxy-3,3-dimethylpiperidin-4-yl)methyl)-2-azaspiro[4.5]decan-3-one]"
20,0.5 to 5,"C[C@H](CC1CCCCC1)C(=O)N1CCC(O)(CN2CCN(C(=O)OCc3ccccc3)CC2=O)C2(CCCC2)C1 (stereo partly drawn) [Example 47, Benzyl 4-((7-((R)-3-cyclohexyl-2-methylpropanoyl)-10-hydroxy-7-azaspiro[4.5]decan-10-yl)methyl)-3-oxopiperazine-1-carboxylate]"
21,< 0.5,"CC(=O)N1CCN(CC2(O)CCN(C(=O)[C@H](C)CC3CCCCC3)CC23CCCC3)C(=O)C1 (stereo partly drawn) [Example 48, 4-Acetyl-1-((7-((R)-3-cyclohexyl-2-methylpropanoyl)-10-hydroxy-7-azaspiro[4.5]decan-10-yl)methyl)piperazin-2-one]"
22,0.5 to 5,"C[C@H](CC1CCCCC1)C(=O)N1CCC(O)(CN2CCN(S(C)(=O)=O)CC2=O)C2(CCCC2)C1 (stereo partly drawn) [Example 49, 1-((7-((R)-3-Cyclohexyl-2-methylpropanoyl)-10-hydroxy-7-azaspiro[4.5]decan-10-yl)methyl)-4-(methylsulfonyl)piperazin-2-one]"
23,< 0.5,"C[C@H](CC1CCCCC1)C(=O)N1CCC(O)(CN2CCN(c3ccccc3)CC2=O)C2(CCCC2)C1 (stereo partly drawn) [Example 50, 1-((7-((R)-3-Cyclohexyl-2-methylpropanoyl)-10-hydroxy-7-azaspiro[4.5]decan-10-yl)methyl)-4-phenylpiperazin-2-one]"
24,5 to 50,"C[C@H](CC1CCCCC1)C(=O)N1CCC(O)(Cn2nc3ccccn3c2=O)C(C)(C)C1 (stereo partly drawn) [Example 51, 2-((1-((R)-3-Cyclohexyl-2-methylpropanoyl)-4-hydroxy-3,3-dimethylpiperidin-4-yl)methyl)-[1,2,4]triazolo[4,3-a]pyridin-3(2H)-one]"
